Measurements from patent US20250127890A1, “COMPOSITIONS AND METHODS FOR TREATING CORONAVIRUS INFECTIOUS DISEASE-19 (COVID-19)” (THE BOARD OF REGENTS OF THE UNIVERSITY OF OKLAHOMA, priority 2021, published 2025).
Read-outs that look alike come from different tables or passages of the source.

Assays:
[1] = tested on: SARS-CoV-2-infected Calu3 cells; assay type: cell-based; details: DCLK1-IN-1 5 μM, tasquinimod 10 μM or both
SARS-CoV-2 [2] = experiment: Western blot of viral proteins and DCLK1 in SARS-CoV-2-infected Calu3 lung cells; assay type: cell-based
Omicron B.1.1.529 virus = assay type: cell-based, SARS-CoV-2; details: 5 μM and 10 μM, in comparison to vehicle-treated control
[3] = tested on: SARS-CoV-2 infected Calu-3 lung cells; experiment: Label-free quantitative proteomic analysis of SARS-CoV-2-infected Calu-3 lung cells; assay type: cell-based
kinase domain of DCLK1 = target: T1, kinase domain of DCLK1 (Homo sapiens, UniProt O15075); details: cited from earlier work
T1 sequence (O15075 390-647 limits assumed): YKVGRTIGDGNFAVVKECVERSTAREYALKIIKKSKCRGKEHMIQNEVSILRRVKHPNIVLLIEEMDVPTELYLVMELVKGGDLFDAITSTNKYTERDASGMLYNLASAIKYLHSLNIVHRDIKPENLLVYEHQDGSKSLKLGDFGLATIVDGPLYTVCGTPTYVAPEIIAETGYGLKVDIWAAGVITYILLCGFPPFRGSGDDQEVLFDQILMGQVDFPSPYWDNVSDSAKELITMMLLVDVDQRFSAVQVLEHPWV

[4] = mice, cited from earlier work
SARS-CoV-2 [5] = assay type: cell-based
[6] = tested on: SARS-CoV-2 nucleocapsid and membrane proteins; experiment: Phosphoproteomic analysis of viral proteins in infected Calu3 cells; assay type: cell-based
[7] = tested on: SARS-CoV-2-infected Huh7-RFP-DCLK1 cells with normal human PBMCs; experiment: Multiplex cytokine assay of spent supernatants from infected Huh7-RFP-DCLK1 / PBMC mixed cocultures; assay type: cell-based; details: 5 μM, 48 h
Protocol: Tissue culture supernatants and sera were analyzed using a custom-made human Magnetic Luminex Assay Kit (LXSAHM-15; R&D Systems) for the following analytes: TNF-α, IFNα, IFNβ, IFNγ, IL-1β, IL-2, IL-4, IL-6, IL-8, IL-10, IL-17, CCL2, M-CSF, GM-CSF, and VEGF-A. Samples were processed in replicates and quantified using the BioPlex 200 System (Bio-Rad). The concentration of each analyte was expressed as pg/mg of total protein. Analyte levels in normal serum or control supernatants were set at 100% when compared to test samples.
To assess the effect of DCLK1 kinase on cytokine production during SARS-CoV-2 infection, we mixed infected Huh7-RFP-DCLK1 cells with normal human PBMCs in the presence of 5 μM DCLK1-IN-1 for 48 h. Spent supernatants were assayed for cytokines/chemokines/growth factors using a multiplex system. As with infected Calu3 cells, DCLK1-IN-1 blocked Spike (FIG. 8A, lane 2, Set 2). […] However, PBMCs were responsive to SARS-CoV-2-infected cells as indicated by increased secretion of TNF-α, IL-1β, IL-6, and IL-10 in spent media compared to uninfected cells (FIG. 8B). DCLK1-IN-1 treatment led to downregulation of cytokines involved in inflammation and viral response (TNF-α, IFNα, IFNγ, and IL-10; FIG. 8C). […] Since CCL2 participates in normal wound healing, an increase in this chemokine may contribute to tissue healing after viral clearance. […]

SARS-CoV-2 [8] = assay type: in vivo, K18-hACE2 mice; details: 10 mg/kg i.p. daily for 4 days
SARS-CoV-2 [9] = assay type: cell-based; remark: listed apart in the source
SARS-CoV-2 [10] = experiment: TCID50 titer of infectious SARS-CoV-2 particles in culture supernatants of infected Calu3 cells; assay type: cell-based; details: treated vs untreated
GM-CSF = target: T2, GM-CSF (Homo sapiens, UniProt P04141); details: clinical trial; cited from earlier work
T2 construct: host or cells: COVID-19 patients (endogenous GM-CSF)
T2 sequence (P04141 18-144): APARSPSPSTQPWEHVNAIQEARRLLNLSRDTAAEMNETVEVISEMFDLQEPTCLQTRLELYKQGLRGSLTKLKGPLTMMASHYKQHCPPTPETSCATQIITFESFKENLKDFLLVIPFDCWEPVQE

COc1cccc2c1c(O)c(C(=O)N(C)c1ccc(C(F)(F)F)cc1)c(=O)n2C [tasquinimod]
active forms of caspase 1 and IL-1β [1]: downregulated

COc1cc(N2CCN(C)CC2)ccc1Nc1ncc2c(n1)N(C)c1ccccc1C(=O)N2CC(F)(F)F [DCLK1-IN-1]
loss of intracellular viral proteins (nucleocapsid and Spike) (SARS-CoV-2 [2]; 5 μM, infected Calu3, Western blot): ~65%
loss of intracellular viral proteins (nucleocapsid and Spike) (SARS-CoV-2 [2]; 10 μM, infected Calu3, Western blot): ~95%
DCLK1 protein levels (SARS-CoV-2 [2]; infected Calu3, Western blot): not significantly affected
reduction in intracellular viral proteins (nucleocapsid and Spike) (SARS-CoV-2 [2]; infected Calu3, Western blot, compared to untreated control): strong dose-response reduction
inhibition of Omicron virus production (Omicron B.1.1.529 virus): 80%-90%
nucleocapsid protein abundance ([3]; infected Calu3, proteomics): not decreased
viral structural proteins (membrane and Spike) and accessory proteins (ORF7a, ORF8, and ORF9b) ([3]; infected Calu3, proteomics): significantly downregulated
8 host proteins upregulated by SARS-CoV-2 (GSPT2, LGALS1, ENO2, H3C15, LXN, SAMD4B, SPTA1 and WDR75) ([3]; infected Calu3, proteomics, GSPT2, SAMD4B, WDR75 validated by Western blot): normalized
21 cellular proteins downregulated by SARS-CoV-2 infection ([3]; several of these proteins, data not shown): restored to normal
Kd (kinase domain of DCLK1; binds the kinase domain of DCLK1): 109 nM
active forms of caspase 1 and IL-1β [1]: downregulated
adverse effects / body weight at MTD ([4]; 100 mg/kg): no adverse effects or loss of body weight
half-life [4]: 2.09 h
maximum tolerated dose (MTD) [4]: 100 mg/kg
Spike by immunofluorescence (SARS-CoV-2 [5]): downregulation of Spike
phosphorylation of five serine residues (S2, S176, S180, S201, and S202) of nucleocapsid protein ([6]; compared with untreated and vehicle-treated infected cells): significant decrease
phosphorylation of viral membrane protein (M) at S212, S213 and S214 ([6]; infected cells, phosphoproteomics): significantly reduced
CCL2 (MCP-1) [7]: increased expression
cytokines involved in inflammation and viral response (TNF-α, IFNα, IFNγ, and IL-10) [7]: downregulation
Dclk1 and S100A9 in lung (confocal microscopy) (SARS-CoV-2 [8]): low expression
expression of Spike and nucleocapsid proteins in lung (Western blot) (SARS-CoV-2 [8]): reduced or absent
staining for Spike in lung (confocal microscopy) (SARS-CoV-2 [8]): rare or weak
lung histopathological features (H&E) (SARS-CoV-2 [8]; lungs collected on day 5): significantly improved
effect on Spike (SARS-CoV-2 [9]): blocked Spike
decrease in infectivity (TCID50) (SARS-CoV-2 [10]; 5 μM): 4 fold
decrease in infectivity (TCID50) (SARS-CoV-2 [10]; 10 μM): 10 fold

COc1cc(N2CCN(C)CC2)ccc1Nc1ncc2c(n1)N(C)c1ccc(C)cc1C(=O)N2CC(F)(F)F [DCLK1-NEG]
effect on Spike (SARS-CoV-2 [2]): did not reduce Spike
binding affinity (kinase domain of DCLK1; structural analog used as negative control): low binding affinity

B1: lenzilumab: a GM-CSF inhibitor (antibody, chains of the INN, looked up, V domains shown)
VH: QVQLVQSGAEVKKPGASVKVSCKASGYSFTNYYIHWVRQAPGQRLEWMGWINAGNGNTKYSQKFQGRVTITRDTSASTAYMELSSLRSEDTAVYYCVRRQRFPYYFDYWGQGTLVTVSS
VL: EIVLTQSPATLSVSPGERATLSCRASQSVGTNVAWYQQKPGQAPRVLIYSTSSRATGITDRFSGSGSGTDFTLTISRLEPEDFAVYYCQQFNKSPLTFGGGTKVEIK
survival of COVID-19 patients (GM-CSF): significantly improved
